PMC10288505, “Photoswitchable Calixarene Activators for Controlled Peptide Transport across Lipid Membranes” (Journal of the American Chemical Society, 2023)

Tests used:
[1] = Carboxyfluorescein (CF) dye efflux assay, counterion-activated peptide transport; format: biochemical; settings: for CF transport out of the liposomes on addition of peptide alone: peptide 4 µM, no activator, LUV 15 µM lipid with 50 mM CF encapsulated
Protocol: Dynamic light scattering (DLS) control experiments also confirmed liposome integrity under the experimental conditions employed in the different membrane transport assays, which ruled out potential membrane disruption interferences (Figure S34). Established dye efflux assays were performed using the carboxyfluorescein (CF) dye encapsulated at self-quenching concentrations in egg phosphatidylcholine large unilamellar vesicles (EYPC-LUV⊃CF).[26],[27],[29],[45] In these experiments, the fractional release of trapped CF (or fractional transport activity, Y), triggered by the addition of counterion activators and peptides, is monitored by time-resolved fluorescence spectroscopy and calibrated by the addition of Triton X-100 (Figure S35).
The studies were performed with both 1 and 2 in the E and Z configurations in the presence of fixed concentrations of liposomes and cationic peptides. […] Likewise, the addition of peptides alone or nonbinding anionic peptides in the presence of calixarene activators also results in unmodified fluorescence signal, confirming that the formation of the calixarene–peptide complex is critical to activate the transport process. […] This approach retrieves the Ymax (i.e., maximal CF release relative to liposome lysis after the addition of Triton X-100) and EC50 (i.e., the effective counterion activator concentration required to reach Ymax/2) as the relevant parameters to measure the efficiency of the counterion activators.
10 mg of L-α-phosphatidylcholine (95%) (Egg, Chicken) were dissolved in 1 ml of chloroform. The solution was evaporated under a nitrogen stream, under rotation, to form a thin lipid film in the bottom of the flask. This film was left to dry under vacuum for a minimum of 1h. After drying the maximum of the solvent from the solution, 1 ml of the solution to incorporate (CF 50 mM in 5 mM phosphate buffer for EYPC-LUV⊃CF and only phosphate buffer 5 mM pH 7.4, for the LUVs with no encapsulation) was added to the thin film and the lipids were left to resuspend under agitation, in a 40 °C bath, for 30 min. The resuspended lipid mixture was then submitted to 10 freeze-thaw cycles and extruded 23 times through a 100 nm membrane, to obtain uniform, monodisperse liposomes with high encapsulation of the added solution. The liposomes were then separated from the molecules that were not encapsulated by size-exclusion chromatography, with Sephadex G25 (V = 37 ml), obtaining two fractions, one with high turbidity and a clear one, corresponding to the encapsulated and free sensor, respectively. The samples were then analyzed by Dynamic Light Scattering (DLS) to determine the average size of the liposomes in solution and their size distribution.
All assays were done up to 48h after the preparation of the vesicles to ensure their integrity and majority of CF still encapsulated.
EC50 and Ymax calculation. For the measurement of 1 and 2’s effectiveness as a counterion activators of polyarginine transport, dye efflux assays were executed at several counterion activator concentrations, while maintaining the concentration of peptide and LUV fixed as indicated in the respective figures.
For the dye efflux assays, CF emission was followed throughout the assay, with consecutive additions of the elements of the solution – the initial solution presented only the vesicles at a fixed concentration. A counterion activator aliquot is then added according to the concentration to be tested and the emission is measured to confirm that CF remains encapsulated; some counterion activators can act as detergents at sufficient concentrations. Finally, the peptide in question is added and fluorescence spectra are measured […]
until the emission stabilizes and a maximum of release is reached. If the counterion activator has the capacity to activate the transport, CF should be co-transported to the exterior of the liposome with the influx of the counterion-peptide complex. Finally, Triton X-100 is added to the solution to dissolve the […]

[2] = Photochemical characterisation (UV–vis absorption, 1H NMR) and thermal Z→E isomerization; format: physicochemical
From the text: The photochromic properties of 1 and 2 were investigated in diluted aqueous solution by UV–vis absorption spectroscopy and in CD3OD by ^1H NMR.
On the other hand, irradiation of the Z-forms at λirr = 500 nm originates a photostationary state (PSS) composed of 70 and 80% of E-1 (Φ1Z → E = 0.6) and E-2 (Φ2Z → E = 0.5), respectively (Figure 1 and Figure S23). As generally observed for other azobenzene photoswitches,[42] the E isomers can be quantitatively recovered in the dark through the thermal Z → E isomerization, with 1 and 2 presenting activation energies of 215 and 93 kJ/mol, respectively (Figures S24 and S25).

hexaarginine (R6) = experiment: Indicator displacement assay with host:LCG reporter pair, guest R6; format: binding; settings: association constant, competitive dye displacement with LCG, 5 mM phosphate buffer pH 7.3; only the lower limit can be estimated
From the text: (§1) The binding affinity of the anionic calixarene activators toward cationic peptides was investigated using a small library of highly hydrophilic oligoarginines, from 3 to 8 residues. These peptides are not able to spontaneously transverse zwitterionic artificial membranes in vesicle assays, which allows the accurate evaluation of the calixarenes 1 and 2 as counterion activators without interferences from the transport of the peptide alone.[43]−[45] First, the formation of host–guest complexes between 1/2 and the selected peptides was verified by indicator displacement assays using lucigenin (LCG) as the fluorescent indicator.[46] As previously reported for other sulfonatocalixarene derivatives,[46] the formation of host–guest binding pairs between calixarenes 1/2 in the E- and Z-forms and LCG results in significant static fluorescence quenching (see Figure 2A and Figures S26 and S27). Quantitative analysis of the fluorescence titration data using a 1:1 host:guest binding model allows the determination of the respective binding constants (K) reported in Table 1. As can be observed, both 1/2 display high affinity for the LCG dye, on the 10^7 M^–1 range, which seems to be independent of the nature and conformation of the azobenzene arm. […] The host:LCG binding pairs were then employed in the above-mentioned indicator displacement assays to investigate the binding affinity of oligoarginines toward 1 and 2 (see Figure 2B and Figures S29–S33).
Figure 2 (A) Fluorescence titration of the lucigenin dye (LCG, 1.5 μM) with increasing concentrations of E-2 in water (5 mM phosphate buffer, pH 7.3). […]
(§2) The binding affinities of the counterion activators and peptide complexes were analyzed by indicator displacement assays. […] Firstly, the affinity for LCG was calculated for each of the activators, by titrations followed by fluorescence spectroscopy leading to almost full quenching of the emission. […]
(§3) Figure S26 - Fluorescence titration of the lucigenin dye with increasing concentrations of A) E-1 and B) Z–1 in water (5 mM phosphate buffer pH 7.3). […]

R3 = experiment: Indicator displacement assay with host:LCG reporter pair, guest R3; format: binding; settings: association constant, competitive dye displacement with LCG, 5 mM phosphate buffer pH 7.3, mean ± SD of triplicate
From the text: as §1
(§4) The binding affinities of the counterion activators and peptide complexes were analyzed by indicator displacement assays. The fluorescent dye chosen for these experiments was lucigenin (LCG) due to its complex with the receptor SC4 being well characterized and due to the high variation of emission between its bound and free form. Firstly, the affinity for LCG was calculated for each of the activators, by titrations followed by fluorescence spectroscopy leading to almost full quenching of the emission. For the competitive assays, a concentration of LCG and activator was chosen in order to have approximately 90% of complexed dye and that mixture was then titrated with each of the peptides, leading to the regaining of emission when LCG was release from the complex.
(§5) Figure S26 - Fluorescence titration of the lucigenin dye with increasing concentrations of A) E-1 and B) Z–1 in water (5 mM phosphate buffer pH 7.3). LCG concentration was fixed 0.2 µM in all experiments, except for the first E-1 titrations were [LCG]
(§6) (1 picture or pasted object on this page, not shown here)
(§7) Figure S29 - Indicator displacement titration of the several oligoarginines A) R3 B) R4 C) R6 and D) R8, using SC4:LCG as the reporter pair (5 mM phosphate buffer pH 7.3). LCG and SC4 concentrations were fixed at A) 0.22 and 0.50 µM, for all three replicates, B) 0.22 and 4.7 µM for the first titration and 0.22 and 4.3 µM for the remaining two replicates, C) 0.22 and 0.45 µM and 1.1 and 0.85 µM and D) 0.28 and 0.43 µM and 1.1 and 0.85 µM, respectively, from left to right.
(§8) Figure S30 - Indicator displacement titration of the several oligoarginines A) R3 B) R4 C) R6 and D) R8, using E-1:LCG as the reporter pair (5 mM phosphate buffer pH 7.3) LCG and E-1 concentrations were fixed at A) 0.11 and 0.25 µM, for all three replicates, B) 0.22 and 0.5 µM, for the first two titrations and 0.22 and 0.23 µM for the remaining replicate, C) 4.0 and 3.8 µM and 0.22 and 0.5 µM, D) 4 and 3 µM and 0.22 and 0.5 µM, respectively, from left to right. […]

R8 = experiment: Indicator displacement assay with host:LCG reporter pair, guest R8; format: binding; settings: association constant, competitive dye displacement with LCG, 5 mM phosphate buffer pH 7.3; only the lower limit can be estimated
From the text: as §1, §2, §3

R4 = experiment: Indicator displacement assay with host:LCG reporter pair, guest R4; format: binding; settings: association constant, competitive dye displacement with LCG, 5 mM phosphate buffer pH 7.3, mean ± SD of triplicate
From the text: as §1, §4, §5, §6, §7, §8

SMILES: N=C(N)NCCC[C@H](NC(=O)[C@H](CCCNC(=N)N)NC(=O)[C@H](CCCNC(=N)N)NC(=O)[C@H](CCCNC(=N)N)NC(=O)[C@H](CCCNC(=N)N)NC(=O)[C@H](CCCNC(=N)N)NC(=O)[C@H](CCCNC(=N)N)NC(=O)[C@@H](N)CCCNC(=N)N)C(N)=O [R8, reference compound]
- CF transport out of the liposomes on addition of peptide alone [1]: did not activate the transport of CF

SMILES: CCCCc1ccc(N=Nc2ccc(OCCCOc3c4cc(S(=O)(=O)[O-])cc3Cc3cc(S(=O)(=O)[O-])cc(c3O)Cc3cc(S(=O)(=O)[O-])cc(c3O)Cc3cc(S(=O)(=O)[O-])cc(c3O)C4)cc2)cc1.[Li+].[Li+].[Li+].[Li+] [compound 2]
- CF fluorescence signal (vesicle leakage) on addition of counterion activator alone ([1]; in the absence of peptides, EYPC-LUV⊃CF): does not affect the intensity of the fluorescence signal
- Activation energy of thermal Z → E isomerization ([2]; in the dark): 22.2 kcal/mol
- Conversion of the E isomer into the Z-form ([2]; irradiation at 366 nm): quantitative conversion
- Photoisomerization quantum yield Φ E → Z ([2]; irradiation at 366 nm, diluted aqueous solution): 0.4
- Photoisomerization quantum yield Φ Z → E ([2]; irradiation at 500 nm): 0.5

SMILES: O=S(=O)(O)c1cc2c(O)c(c1)Cc1cc(S(=O)(=O)O)cc(c1O)Cc1cc(S(=O)(=O)O)cc(c1O)Cc1cc(S(=O)(=O)O)cc(c1O)C2 [SC4, sulfonatocalix[4]arene, reference compound]
- Apparent affinity constant K for R6 (hexaarginine (R6)): >1 × 10^9 ^a M^–1
- Apparent affinity constant K for R3 (R3): (5.5 ± 0.3) × 10^6 M^–1
- Apparent affinity constant K for R8 (R8): >1 × 10^9 ^a M^–1
- Apparent affinity constant K for R4 (R4): (2.7 ± 0.4) × 10^8 M^–1

SMILES: N=C(N)NCCC[C@H](NC(=O)[C@H](CCCNC(=N)N)NC(=O)[C@H](CCCNC(=N)N)NC(=O)[C@H](CCCNC(=N)N)NC(=O)[C@H](CCCNC(=N)N)NC(=O)[C@@H](N)CCCNC(=N)N)C(N)=O [R6, hexaarginine, reference compound]
- CF transport out of the liposomes on addition of peptide alone [1]: did not activate the transport of CF
